This note sets out measurements from ChEMBL document CHEMBL1201862, “PubChem BioAssay data set” (2004).

Some test systems named below: SK-OV-3; CAKI-1; SF-539; DU-145; Hs-578T; MDA-MB-435; HL-60; MDA-MB-231; SNB-75; SF-268; NCI/ADR-RES; PC-3; RXF 393; UACC-257; A498; SK-MEL-5; NCI-H226; LOX IMVI; HCT-116; SNB-19.
Holding throughout (test): NCI-60 cell line screen, 48 h

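Five concentrations, 48 hours, 96-well plates. GI50 = concentration required for 50% inhibition of growth.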 Calls of active or inactive are those of the source. Rule as the data show it: active = GI50 up to about 1.1 µM and inactive = higher.

As to `Cc1cn(C2CC(N=[N+]=[N-])C(CO[Si](C)(C)C(C)(C)C)O2)c(=O)[nH]c1=O` (stereo not given), the GI50 in the experiment on SK-OV-3 is 18.4 µM (inactive); with CAKI-1, 16.4 µM (inactive); in the experiment on SF-539 it was 18 µM (inactive); with DU-145, 21.6 µM (inactive); with Hs-578T, 17.6 µM (inactive); in the experiment with MDA-MB-435, 18 µM (inactive). Further, the GI50 in the experiment with HL-60 is 28.7 µM (inactive); with MDA-MB-231, 13.6 µM (inactive); in the experiment with SNB-75, 19.3 µM (inactive); in the experiment on SF-268, 19.5 µM (inactive); in the experiment with NCI/ADR-RES, 16.6 µM (inactive); with PC-3, 15.7 µM (inactive). Besides, the GI50 is 15.5 µM (inactive) in the experiment with RXF 393; 21.6 µM (inactive) with UACC-257; 16.1 µM (inactive) in the experiment with A498; 18.5 µM (inactive) in the experiment on SK-MEL-5; 14.9 µM (inactive) with NCI-H226; 16.9 µM (inactive) in the experiment on LOX IMVI. In addition, the figures for the GI50 in the experiment on HCT-116 and in the experiment on SNB-19 were 16.1 µM (inactive) and 19.8 µM (inactive), respectively.

`CCN(CC)CCn1ncc2ccc3c(c(=O)c4cccnc4n3CCN(CC)CC)c21`: the GI50 is 1.16 µM (inactive) with SK-OV-3; 3.54 µM (inactive) with CAKI-1; 0.589 µM (active) in the experiment on SF-539; 2.41 µM (inactive) with DU-145; 2.17 µM (inactive) in the experiment with Hs-578T; 0.655 µM (active) with MDA-MB-435. In addition, the GI50 is 1.09 µM (active) in the experiment on HL-60; 1.67 µM (inactive) with MDA-MB-231; 1.05 µM (active) in the experiment on SNB-75; 1.35 µM (inactive) in the experiment with SF-268; 1.45 µM (inactive) in the experiment on NCI/ADR-RES; 0.986 µM (active) in the experiment on PC-3. Moreover, the GI50 with RXF 393 was 0.67 µM (active); in the experiment with UACC-257 it was 1.88 µM (inactive); with A498 it was 0.598 µM (active); in the experiment on SK-MEL-5, 1.09 µM (active); with NCI-H226, 1.7 µM (inactive); with LOX IMVI, 0.521 µM (active). Besides, the GI50 in the experiment on HCT-116 was 0.385 µM (active); in the experiment with SNB-19, 1.97 µM (inactive).

As for `CC(=O)c1ccc(Br)cc1NC1=CC(=O)c2ncccc2C1=O`, the GI50 was 15.7 µM (inactive) in the experiment on SK-OV-3; 7.59 µM (inactive) in the experiment with CAKI-1; 2.56 µM (inactive) in the experiment with SF-539; 4.36 µM (inactive) in the experiment on DU-145; 17.1 µM (inactive) in the experiment with Hs-578T; 1.69 µM (inactive) with MDA-MB-435. The GI50 in the experiment with HL-60 is 1.64 µM (inactive); with MDA-MB-231 it was 1.88 µM (inactive); in the experiment with SNB-75 it was 0.242 µM (active); in the experiment on SF-268 it was 7.26 µM (inactive); in the experiment on NCI/ADR-RES, 3.9 µM (inactive); in the experiment on PC-3, 3.95 µM (inactive). For the same compound, the GI50 with RXF 393 is 5.13 µM (inactive); in the experiment with UACC-257 it was 1.48 µM (inactive); in the experiment with A498, 1.57 µM (inactive); with SK-MEL-5, 0.322 µM (active); in the experiment with NCI-H226, 3.64 µM (inactive); in the experiment on LOX IMVI it was 5.79 µM (inactive). The GI50 was 1.9 µM (inactive) in the experiment on HCT-116 and 3.84 µM (inactive) with SNB-19.

On to `C/C(=N/NC(=S)Nc1ccccc1Cl)c1cccc(/C(C)=N\NC(=S)Nc2ccccc2Cl)n1`, for which the GI50 with SK-OV-3 was > 100 µM (inactive); in the experiment on CAKI-1 it was > 100 µM (inactive); in the experiment on SF-539, 16.6 µM (inactive); in the experiment with DU-145, > 100 µM (inactive); in the experiment on Hs-578T, > 100 µM (inactive); in the experiment with MDA-MB-435, > 100 µM (inactive). The GI50 was > 100 µM (inactive) in the experiment with HL-60; 12.2 µM (inactive) with MDA-MB-231; > 100 µM (inactive) in the experiment on SNB-75; > 100 µM (inactive) with SF-268; > 100 µM (inactive) with NCI/ADR-RES; 36.1 µM (inactive) with PC-3. In addition, the GI50 is > 100 µM (inactive) with RXF 393; 67 µM (inactive) in the experiment with UACC-257; > 100 µM (inactive) with A498; 12.4 µM (inactive) with SK-MEL-5; > 100 µM (inactive) in the experiment with NCI-H226; 61.8 µM (inactive) in the experiment on LOX IMVI. In addition, the GI50 was 16.1 µM (inactive) in the experiment on HCT-116 and 82.4 µM (inactive) in the experiment with SNB-19.
